# Experimental data taken from US20130029928A1 (priority 2010, published 2013).
# Read-outs that look alike come from different tables or passages of the source.
# Test: Phase I study CXR1002-001: plasma pharmacokinetics (LC-MS/MS)
# Format: in vivo, human
# Settings: human, plasma, oral; for concentration at 843 h / concentration at 844 h / concentration at 864 h / concentration at 2 h / concentration at 3 h / concentration at 4 h / concentration at 24 h / concentration at 168 h / concentration at 170 h / concentration at 171 h / concentration at 172 h / concentration at 192 h / concentration at 336 h / concentration at 338 h / concentration at 339 h / concentration at 340 h / concentration at 360 h / concentration at 506 h / concentration at 507 h / concentration at 508 h / concentration at 528 h / concentration at 672 h / concentration at 674 h / concentration at 675 h / concentration at 676 h / concentration at 696 h / concentration at 840 h / concentration at 842 h / concentration at 504 h: read-out: Concentration; for concentration at 864 h: 864 hr (Day 37); for concentration at 24 h: 24 hr (Day 2); for concentration at 168 h: 168 hr (Day 8); for concentration at 192 h: 192 hr (Day 9); for concentration at 336 h: 336 hr (Day 15); for concentration at 360 h: 360 hr (Day 16); for concentration at 528 h: 528 hr (Day 23); for concentration at 672 h: 672 hr (Day 29); for concentration at 696 h: 696 hr (Day 30); for concentration at 840 h: 840 hr (Day 36); for concentration at 504 h: 504 hr (Day 22)
# Excerpt: PK samples, PD (fasting) samples, blood glucose, and blood triglyceride samples, were taken over a 6-week period.
# Dose limiting toxicity (DLT) will be based on the toxicity assessments over the first 3-week period of the repeat dosing schedule. PK samples (single blood sample) were taken on the following basis: • Every 6 weeks during the repeat dosing phase • If dosing is interrupted or stopped, samples will be taken at intervals according to patient convenience • PK sampling for safety evaluation may take place at any time, as clinically indicated
# Plasma samples were collected after the single 50 mg dose at the following timepoints: Pre-dose, and then 0.25, 0.5, 0.75, 1, 1.5, 2, 3, 4, 6, 24, 48, and 72 hours after administration and then once weekly at weeks 2, 3, 4, 5, and 6 (days 8, 15, 22, 29, and 36). For patients treated with the weekly repeat dose, plasma samples were collected at the following timepoints: Pre-dose and then 2, 3, 4 and 24 hours after administration for a total of 6 weeks. Thereafter a single sample was collected every 6 weeks for monitoring of exposure during long term treatment. Plasma samples were processed at site and stored at −80° C. prior to batch shipment to the analytical laboratory.
# [1] = 200 mg, Patient 009 Dose 200 mg
# [2] = 200 mg, Patient 010 Dose 200 mg
# [3] = 300 mg, Patient 011 Dose 300 mg
# [4] = 300 mg, Patient 012 Dose 300 mg
# [5] = 300 mg, Patient 013 Dose 300 mg
# [6] = 300 mg, Patient 014 Dose 300 mg
structure (smiles),measurement,setting,value
O=C(O)C(F)(F)C(F)(F)C(F)(F)C(F)(F)C(F)(F)C(F)(F)C(F)(F)F [CXR1002],concentration at 843 h,[1],373 µM
same,concentration at 844 h,[1],329 µM
same,concentration at 864 h,[1],346 µM
same,concentration at 92 day,"200 mg, Patient 009 Dose 200 mg, Day 92",456 µM
same,concentration at 19 week,"200 mg, Patient 009 Dose 200 mg, Week 19",618 µM
same,concentration at 25 week,"200 mg, Patient 009 Dose 200 mg, Week 25",501 µM
same,concentration at 32 week,"200 mg, Patient 009 Dose 200 mg, Week 32",540 µM
same,concentration at 0 h,"200 mg, Patient 010 Dose 200 mg, 0 hr",0 nM
same,concentration at 2 h,[2],21.1 µM
same,concentration at 3 h,[2],30.4 µM
same,concentration at 4 h,[2],33.6 µM
same,concentration at 24 h,[2],58.6 µM
same,concentration at 168 h,[2],51 µM
same,concentration at 170 h,[2],81.7 µM
same,concentration at 171 h,[2],81.4 µM
same,concentration at 172 h,[2],119 µM
same,concentration at 192 h,[2],101 µM
same,concentration at 336 h,[2],98.8 µM
same,concentration at 338 h,[2],118 µM
same,concentration at 339 h,[2],103 µM
same,concentration at 340 h,[2],66.7 µM
same,concentration at 360 h,[2],175 µM
same,concentration at 506 h,[2],207 µM
same,concentration at 507 h,[2],276 µM
same,concentration at 508 h,[2],187 µM
same,concentration at 528 h,[2],191 µM
same,concentration at 672 h,[2],192 µM
same,concentration at 674 h,[2],193 µM
same,concentration at 675 h,[2],237 µM
same,concentration at 676 h,[2],231 µM
same,concentration at 696 h,[2],256 µM
same,concentration at 840 h,[2],243 µM
same,concentration at 842 h,[2],188 µM
same,concentration at 843 h,[2],232 µM
same,concentration at 844 h,[2],223 µM
same,concentration at 864 h,[2],221 µM
same,concentration at 2 h,[3],101 µM
same,concentration at 3 h,[3],107 µM
same,concentration at 4 h,[3],112 µM
same,concentration at 24 h,[3],95.9 µM
same,concentration at 168 h,[3],57.9 µM
same,concentration at 170 h,[3],112 µM
same,concentration at 171 h,[3],122 µM
same,concentration at 172 h,[3],138 µM
same,concentration at 192 h,[3],178 µM
same,concentration at 336 h,[3],131 µM
same,concentration at 338 h,[3],160 µM
same,concentration at 339 h,[3],160 µM
same,concentration at 340 h,[3],147 µM
same,concentration at 360 h,[3],237 µM
same,concentration at 504 h,[3],145 µM
same,concentration at 506 h,[3],204 µM
same,concentration at 507 h,[3],288 µM
same,concentration at 508 h,[3],244 µM
same,concentration at 672 h,[3],255 µM
same,concentration at 674 h,[3],291 µM
same,concentration at 675 h,[3],304 µM
same,concentration at 676 h,[3],243 µM
same,concentration at 696 h,[3],326 µM
same,concentration at 840 h,[3],270 µM
same,concentration at 842 h,[3],384 µM
same,concentration at 843 h,[3],350 µM
same,concentration at 844 h,[3],282 µM
same,concentration at 864 h,[3],387 µM
same,concentration at 12 week,"300 mg, Patient 011 Dose 300 mg, Week 12",574 µM
same,concentration at 2 h,[4],91.4 µM
same,concentration at 3 h,[4],93.5 µM
same,concentration at 4 h,[4],123 µM
same,concentration at 24 h,[4],74 µM
same,concentration at 168 h,[4],64.8 µM
same,concentration at 171 h,[4],148 µM
same,concentration at 172 h,[4],126 µM
same,concentration at 192 h,[4],152 µM
same,concentration at 336 h,[4],141 µM
same,concentration at 339 h,[4],196 µM
same,concentration at 340 h,[4],213 µM
same,concentration at 360 h,[4],218 µM
same,concentration at 504 h,[4],181 µM
same,concentration at 506 h,[4],278 µM
same,concentration at 507 h,[4],261 µM
same,concentration at 508 h,[4],221 µM
same,concentration at 528 h,[4],263 µM
same,concentration at 672 h,[4],303 µM
same,concentration at 674 h,[4],340 µM
same,concentration at 675 h,[4],373 µM
same,concentration at 676 h,[4],292 µM
same,concentration at 696 h,[4],334 µM
same,concentration at 2 h,[5],82.7 µM
same,concentration at 3 h,[5],76 µM
same,concentration at 4 h,[5],85.3 µM
same,concentration at 24 h,[5],79.6 µM
same,concentration at 2 h,[6],131 µM
same,concentration at 3 h,[6],121 µM
same,concentration at 4 h,[6],100 µM
same,concentration at 24 h,[6],102 µM
same,concentration at 168 h,[6],79.6 µM
same,concentration at 170 h,[6],154 µM
same,concentration at 171 h,[6],178 µM
same,concentration at 172 h,[6],180 µM
same,concentration at 192 h,[6],178 µM
same,concentration at 336 h,[6],173 µM
same,concentration at 338 h,[6],297 µM
same,concentration at 339 h,[6],270 µM
same,concentration at 340 h,[6],261 µM
same,concentration at 504 h,[6],288 µM
same,concentration at 506 h,[6],336 µM
same,concentration at 507 h,[6],374 µM
same,concentration at 528 h,[6],420 µM
same,concentration at 672 h,[6],355 µM
same,concentration at 674 h,[6],389 µM
same,concentration at 675 h,[6],400 µM
same,concentration at 676 h,[6],411 µM
same,concentration at 696 h,[6],478 µM
same,concentration at 840 h,[6],426 µM
same,concentration at 842 h,[6],506 µM
